Results taken from ChEMBL document CHEMBL1139396, “Novel N9-arenethenyl purines as potent dual Src/Abl tyrosine kinase inhibitors” (Bioorg Med Chem Lett, 2008).

Columns and labels:
[1] = Cytotoxicity against mouse BA/F3 cells transfected with wild-type Bcr-Abl; conditions: BaF3
K562 = test: Cytotoxicity against human K562 cells transfected with wild-type Bcr-Abl
[2] = target: Proto-oncogene tyrosine-protein kinase Src (Homo sapiens, UniProt P12931); test: Inhibition of human Src kinase by TR-FRET assay
Proto-oncogene tyrosine-protein kinase Src, sequence (P12931 2-536 limits assumed): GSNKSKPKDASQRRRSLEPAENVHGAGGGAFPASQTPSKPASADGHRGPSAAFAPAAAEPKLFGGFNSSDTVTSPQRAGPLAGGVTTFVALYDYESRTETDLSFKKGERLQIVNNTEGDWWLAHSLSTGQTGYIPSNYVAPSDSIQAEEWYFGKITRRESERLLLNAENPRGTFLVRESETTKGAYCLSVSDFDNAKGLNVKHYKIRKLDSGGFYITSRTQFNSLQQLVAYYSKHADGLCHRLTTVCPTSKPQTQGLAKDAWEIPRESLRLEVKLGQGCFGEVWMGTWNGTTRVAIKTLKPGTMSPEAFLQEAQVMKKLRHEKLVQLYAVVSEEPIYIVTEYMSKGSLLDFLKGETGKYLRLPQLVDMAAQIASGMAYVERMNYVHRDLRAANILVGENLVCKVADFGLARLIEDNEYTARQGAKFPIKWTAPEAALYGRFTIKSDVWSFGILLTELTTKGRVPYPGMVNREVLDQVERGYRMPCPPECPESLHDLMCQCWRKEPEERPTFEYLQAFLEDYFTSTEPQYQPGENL

[3] = target: Tyrosine-protein kinase ABL1 (Homo sapiens, UniProt P00519)
Tyrosine-protein kinase ABL1, sequence (P00519 whole entry): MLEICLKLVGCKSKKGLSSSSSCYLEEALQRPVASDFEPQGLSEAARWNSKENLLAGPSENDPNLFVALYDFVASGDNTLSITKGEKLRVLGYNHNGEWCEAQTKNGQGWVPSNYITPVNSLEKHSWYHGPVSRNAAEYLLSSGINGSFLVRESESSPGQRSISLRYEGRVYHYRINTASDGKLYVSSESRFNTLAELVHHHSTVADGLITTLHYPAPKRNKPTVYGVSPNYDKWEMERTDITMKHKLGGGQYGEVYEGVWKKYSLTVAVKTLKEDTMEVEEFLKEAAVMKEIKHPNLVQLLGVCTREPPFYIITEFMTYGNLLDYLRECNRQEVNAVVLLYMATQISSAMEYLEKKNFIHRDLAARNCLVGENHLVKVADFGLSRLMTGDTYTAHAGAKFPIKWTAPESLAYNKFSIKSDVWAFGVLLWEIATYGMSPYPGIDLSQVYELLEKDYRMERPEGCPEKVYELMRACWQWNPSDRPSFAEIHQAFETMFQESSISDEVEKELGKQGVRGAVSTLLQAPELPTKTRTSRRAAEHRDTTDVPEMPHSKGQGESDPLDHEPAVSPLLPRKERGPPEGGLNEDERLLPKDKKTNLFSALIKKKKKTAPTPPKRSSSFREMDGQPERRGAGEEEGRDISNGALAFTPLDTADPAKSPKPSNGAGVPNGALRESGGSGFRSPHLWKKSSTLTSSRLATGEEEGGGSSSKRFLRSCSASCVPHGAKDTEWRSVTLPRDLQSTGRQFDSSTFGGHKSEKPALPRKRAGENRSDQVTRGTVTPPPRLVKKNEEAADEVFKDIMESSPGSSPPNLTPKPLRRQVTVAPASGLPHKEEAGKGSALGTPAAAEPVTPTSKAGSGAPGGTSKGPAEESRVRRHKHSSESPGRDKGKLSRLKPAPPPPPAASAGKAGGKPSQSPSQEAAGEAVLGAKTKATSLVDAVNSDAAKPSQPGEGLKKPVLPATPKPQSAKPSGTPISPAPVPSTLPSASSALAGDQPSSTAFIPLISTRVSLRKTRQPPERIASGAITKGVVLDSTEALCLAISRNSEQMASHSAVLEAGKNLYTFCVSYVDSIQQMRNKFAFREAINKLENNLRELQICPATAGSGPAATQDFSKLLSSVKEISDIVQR

[4] = Half life in rat at 5 mg/kg, po; assay type: ADME, organism-based; set-up: dose 5 mg/kg, route oral; conditions: in vivo
[5] = Cmax in rat at 5 mg/kg, po; assay type: ADME, organism-based; set-up: dose 5 mg/kg, route oral; conditions: in vivo
[6] = Cmax in rat at 5 mg/kg, iv; assay type: ADME, organism-based; set-up: dose 5 mg/kg, route intravenous; conditions: in vivo
[7] = Half life in rat at 5 mg/kg, iv; assay type: ADME, organism-based; set-up: dose 5 mg/kg, route intravenous; conditions: in vivo
[8] = Oral bioavailability in rat at 5 mg/kg; assay type: ADME, organism-based; conditions: in vivo
[9] = Volume of distribution at steady state in rat at 5 mg/kg, iv; assay type: ADME, organism-based; set-up: dose 5 mg/kg, route intravenous; conditions: in vivo, read-out: Vdss
Ephrin type-B receptor 4 = target: T1, Ephrin type-B receptor 4 (Homo sapiens, UniProt P54760); test: Inhibition of EphB4
T1 sequence (P54760 whole entry): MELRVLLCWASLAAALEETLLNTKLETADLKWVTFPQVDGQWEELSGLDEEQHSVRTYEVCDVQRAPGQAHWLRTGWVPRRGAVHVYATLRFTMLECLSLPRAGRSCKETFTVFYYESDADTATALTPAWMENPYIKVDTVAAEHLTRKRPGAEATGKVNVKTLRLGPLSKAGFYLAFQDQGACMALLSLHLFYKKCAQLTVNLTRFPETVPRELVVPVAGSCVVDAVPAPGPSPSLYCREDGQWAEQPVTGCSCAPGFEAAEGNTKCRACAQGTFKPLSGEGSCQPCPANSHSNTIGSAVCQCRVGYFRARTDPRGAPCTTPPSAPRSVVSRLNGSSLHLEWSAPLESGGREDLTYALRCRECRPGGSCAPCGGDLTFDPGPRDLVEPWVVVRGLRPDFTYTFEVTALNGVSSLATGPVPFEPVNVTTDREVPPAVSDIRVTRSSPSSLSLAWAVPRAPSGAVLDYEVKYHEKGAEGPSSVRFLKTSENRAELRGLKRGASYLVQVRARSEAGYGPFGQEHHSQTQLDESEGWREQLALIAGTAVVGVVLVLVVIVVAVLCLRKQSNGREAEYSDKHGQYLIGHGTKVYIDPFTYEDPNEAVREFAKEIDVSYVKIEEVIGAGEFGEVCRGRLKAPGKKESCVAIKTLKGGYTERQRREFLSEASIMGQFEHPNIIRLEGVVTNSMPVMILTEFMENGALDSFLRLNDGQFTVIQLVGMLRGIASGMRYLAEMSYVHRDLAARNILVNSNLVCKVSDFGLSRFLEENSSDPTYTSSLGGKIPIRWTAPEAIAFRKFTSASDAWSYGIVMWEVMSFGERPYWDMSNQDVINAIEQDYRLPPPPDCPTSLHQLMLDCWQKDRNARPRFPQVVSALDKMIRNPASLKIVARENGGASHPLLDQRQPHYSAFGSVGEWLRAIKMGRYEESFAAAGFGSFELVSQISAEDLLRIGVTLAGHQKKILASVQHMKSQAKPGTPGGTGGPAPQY

[10] = target: Mast/stem cell growth factor receptor Kit (Homo sapiens, UniProt P10721); test: Inhibition of Kit
[11] = target: Platelet-derived growth factor receptor alpha (Homo sapiens, UniProt P16234); test: Inhibition of PDGFRalpha
[12] = target: RAF proto-oncogene serine/threonine-protein kinase (Homo sapiens, UniProt P04049); test: Inhibition of c-Raf
RAF proto-oncogene serine/threonine-protein kinase, sequence (P04049 whole entry): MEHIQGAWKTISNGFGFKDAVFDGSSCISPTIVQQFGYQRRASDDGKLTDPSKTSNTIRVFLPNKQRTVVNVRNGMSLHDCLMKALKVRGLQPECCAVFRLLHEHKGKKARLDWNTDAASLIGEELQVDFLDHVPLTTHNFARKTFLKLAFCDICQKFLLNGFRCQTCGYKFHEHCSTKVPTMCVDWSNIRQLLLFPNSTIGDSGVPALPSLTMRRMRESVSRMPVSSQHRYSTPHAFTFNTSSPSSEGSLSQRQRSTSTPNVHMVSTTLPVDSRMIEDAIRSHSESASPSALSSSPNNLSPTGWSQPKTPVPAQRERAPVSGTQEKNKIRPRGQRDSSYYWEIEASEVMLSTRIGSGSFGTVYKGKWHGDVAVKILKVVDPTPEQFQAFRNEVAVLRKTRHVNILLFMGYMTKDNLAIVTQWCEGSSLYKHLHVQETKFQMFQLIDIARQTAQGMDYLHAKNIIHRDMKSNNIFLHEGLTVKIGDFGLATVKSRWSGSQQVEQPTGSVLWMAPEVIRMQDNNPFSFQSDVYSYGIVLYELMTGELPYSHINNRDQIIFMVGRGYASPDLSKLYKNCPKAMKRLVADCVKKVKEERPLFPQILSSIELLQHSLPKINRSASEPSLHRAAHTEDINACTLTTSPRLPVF

[13] = target: Macrophage colony-stimulating factor 1 receptor (Homo sapiens, UniProt P07333)
Macrophage colony-stimulating factor 1 receptor, sequence (P07333 whole entry): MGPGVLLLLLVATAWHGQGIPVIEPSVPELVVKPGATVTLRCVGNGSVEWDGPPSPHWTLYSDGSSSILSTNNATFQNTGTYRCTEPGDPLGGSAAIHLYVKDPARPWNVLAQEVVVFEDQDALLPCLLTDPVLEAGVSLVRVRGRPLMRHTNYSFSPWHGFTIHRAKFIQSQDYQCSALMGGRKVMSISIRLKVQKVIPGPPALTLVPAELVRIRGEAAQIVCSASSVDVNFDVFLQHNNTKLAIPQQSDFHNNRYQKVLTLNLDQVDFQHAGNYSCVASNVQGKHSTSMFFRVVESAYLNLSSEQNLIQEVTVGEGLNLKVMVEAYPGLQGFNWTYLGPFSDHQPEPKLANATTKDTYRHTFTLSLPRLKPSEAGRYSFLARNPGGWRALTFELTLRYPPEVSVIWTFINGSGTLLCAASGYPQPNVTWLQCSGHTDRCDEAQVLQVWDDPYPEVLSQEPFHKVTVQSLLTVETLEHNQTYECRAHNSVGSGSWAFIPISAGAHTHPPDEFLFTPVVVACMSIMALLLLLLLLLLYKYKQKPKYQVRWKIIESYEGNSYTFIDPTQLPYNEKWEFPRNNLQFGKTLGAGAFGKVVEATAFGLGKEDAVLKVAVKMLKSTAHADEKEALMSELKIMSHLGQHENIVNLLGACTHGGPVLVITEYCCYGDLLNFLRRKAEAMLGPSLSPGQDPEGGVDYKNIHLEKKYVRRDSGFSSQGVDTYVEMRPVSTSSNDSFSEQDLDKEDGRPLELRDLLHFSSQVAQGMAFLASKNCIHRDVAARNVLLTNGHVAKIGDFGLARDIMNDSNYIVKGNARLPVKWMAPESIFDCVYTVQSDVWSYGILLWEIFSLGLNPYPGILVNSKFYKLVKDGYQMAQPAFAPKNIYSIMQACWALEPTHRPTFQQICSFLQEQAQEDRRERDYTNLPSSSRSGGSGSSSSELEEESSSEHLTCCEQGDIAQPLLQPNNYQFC

Ephrin type-B receptor 1 = target: T2, Ephrin type-B receptor 1 (Homo sapiens, UniProt P54762); test: Inhibition of EphB1
T2 sequence (P54762 whole entry): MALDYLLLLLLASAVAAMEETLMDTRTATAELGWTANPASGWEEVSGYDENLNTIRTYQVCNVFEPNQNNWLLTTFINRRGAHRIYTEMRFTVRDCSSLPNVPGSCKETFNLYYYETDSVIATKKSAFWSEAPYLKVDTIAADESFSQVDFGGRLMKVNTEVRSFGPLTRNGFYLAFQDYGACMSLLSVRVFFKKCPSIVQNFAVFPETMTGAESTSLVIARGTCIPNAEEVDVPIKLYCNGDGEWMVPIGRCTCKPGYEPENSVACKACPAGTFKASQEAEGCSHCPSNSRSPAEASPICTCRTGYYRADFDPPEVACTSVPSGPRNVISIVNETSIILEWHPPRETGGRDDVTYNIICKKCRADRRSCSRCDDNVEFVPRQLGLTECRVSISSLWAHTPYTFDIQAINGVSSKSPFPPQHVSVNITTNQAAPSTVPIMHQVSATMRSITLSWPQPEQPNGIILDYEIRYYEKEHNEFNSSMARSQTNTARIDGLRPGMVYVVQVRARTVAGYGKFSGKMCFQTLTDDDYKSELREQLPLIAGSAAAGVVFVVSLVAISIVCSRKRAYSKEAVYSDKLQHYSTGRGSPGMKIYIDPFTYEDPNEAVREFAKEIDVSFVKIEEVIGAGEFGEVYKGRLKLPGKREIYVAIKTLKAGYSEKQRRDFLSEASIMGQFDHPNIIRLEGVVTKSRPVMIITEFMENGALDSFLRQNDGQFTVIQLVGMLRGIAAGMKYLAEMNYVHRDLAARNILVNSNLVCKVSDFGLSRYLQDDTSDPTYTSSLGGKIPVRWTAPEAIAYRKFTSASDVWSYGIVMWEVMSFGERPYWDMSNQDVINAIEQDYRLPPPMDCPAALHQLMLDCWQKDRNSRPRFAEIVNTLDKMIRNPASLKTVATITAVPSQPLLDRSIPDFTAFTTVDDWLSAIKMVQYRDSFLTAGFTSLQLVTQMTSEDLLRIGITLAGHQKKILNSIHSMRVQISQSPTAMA

[14] = target: Vascular endothelial growth factor receptor 1 (Homo sapiens, UniProt P17948); test: Inhibition of Flt1
Vascular endothelial growth factor receptor 1, sequence (P17948 whole entry): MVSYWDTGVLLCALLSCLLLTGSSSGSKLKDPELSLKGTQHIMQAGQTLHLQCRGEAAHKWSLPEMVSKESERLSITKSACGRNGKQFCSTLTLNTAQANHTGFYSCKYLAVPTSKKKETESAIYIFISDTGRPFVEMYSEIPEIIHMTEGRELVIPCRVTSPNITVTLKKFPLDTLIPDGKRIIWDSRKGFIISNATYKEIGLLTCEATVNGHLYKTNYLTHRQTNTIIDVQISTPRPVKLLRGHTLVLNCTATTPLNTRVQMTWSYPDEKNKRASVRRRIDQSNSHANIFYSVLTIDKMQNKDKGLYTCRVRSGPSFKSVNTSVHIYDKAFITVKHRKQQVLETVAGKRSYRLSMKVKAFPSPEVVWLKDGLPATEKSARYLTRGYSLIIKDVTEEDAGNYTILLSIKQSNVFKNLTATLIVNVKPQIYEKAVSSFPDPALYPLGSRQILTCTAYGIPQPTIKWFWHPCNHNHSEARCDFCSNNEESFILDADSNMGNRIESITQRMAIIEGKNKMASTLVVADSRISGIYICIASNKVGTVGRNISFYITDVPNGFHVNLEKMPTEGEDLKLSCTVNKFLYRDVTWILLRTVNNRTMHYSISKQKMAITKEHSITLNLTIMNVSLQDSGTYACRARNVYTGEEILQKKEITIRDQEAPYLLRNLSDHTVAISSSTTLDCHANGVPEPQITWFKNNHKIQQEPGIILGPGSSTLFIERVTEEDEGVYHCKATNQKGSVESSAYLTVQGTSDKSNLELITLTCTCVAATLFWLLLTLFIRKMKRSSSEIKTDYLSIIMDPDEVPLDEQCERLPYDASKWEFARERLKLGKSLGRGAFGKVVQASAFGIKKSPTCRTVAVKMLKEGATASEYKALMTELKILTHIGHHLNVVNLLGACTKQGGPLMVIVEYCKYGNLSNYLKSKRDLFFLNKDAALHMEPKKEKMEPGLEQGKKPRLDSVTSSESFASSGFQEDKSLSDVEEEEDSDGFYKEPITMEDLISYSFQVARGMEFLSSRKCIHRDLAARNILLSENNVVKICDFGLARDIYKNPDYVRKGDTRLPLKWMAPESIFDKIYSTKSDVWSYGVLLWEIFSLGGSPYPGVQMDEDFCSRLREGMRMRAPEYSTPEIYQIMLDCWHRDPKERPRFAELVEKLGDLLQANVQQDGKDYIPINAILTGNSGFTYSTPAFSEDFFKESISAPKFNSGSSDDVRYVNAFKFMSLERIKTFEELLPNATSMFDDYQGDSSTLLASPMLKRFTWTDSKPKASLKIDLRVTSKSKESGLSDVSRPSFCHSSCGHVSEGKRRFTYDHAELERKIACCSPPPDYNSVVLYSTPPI

Insulin receptor = Insulin receptor (Homo sapiens, UniProt P06213); test: Inhibition of InsR
[15] = target: Ephrin type-A receptor 7 (Homo sapiens) (UniProt Q15375); test: Inhibition of EphA7
[16] = target: Cyclin-dependent kinase 2 (Homo sapiens, UniProt P24941); test: Inhibition of CDK2/CyclinA
[17] = Inhibition of Abl […] mutant
[18] = Inhibition of Aurora kinase
[19] = target: Vascular endothelial growth factor receptor 3 (Homo sapiens, UniProt P35916); test: Inhibition of Flt4

Row | SMILES | IC50 [1] [µM] | IC50 (K562) [µM] | IC50 [2] [µM] | IC50 [3] [µM] | other results
1 | Cc1cccc(C)c1/C=C/n1cnc2c(Nc3ccc(P(C)(C)=O)cc3)nc(N3CCCC3)nc21 | 0.123 | 0.0891 |  |  | 
2 | CP(C)(=O)c1ccc(Nc2ncnc3c2ncn3/C=C/c2cccc3[nH]ncc23)cc1 | 0.85 | 0.355 |  |  | 
3 | Cc1cccc(C)c1/C=C/n1cnc2c(Nc3ccc(P(C)(C)=O)cc3)nc(N3CCOCC3)nc21 | 0.0208 |  | < 0.00023 | 0.00302 | 
4 | Cc1cccc(Cl)c1/C=C/n1cnc2c(Nc3ccc(P(C)(C)=O)cc3)ncnc21 | 0.2 | 0.109 |  |  | half-life [4]: 3.3 h; Cmax [5]: 1680 ng/mL; Cmax [6]: 4590 ng/mL; half-life [7]: 2.74 h; bioavailability [8]: 17%; Vd [9]: 2.74 L/kg
5 | CP(C)(=O)c1ccc(Nc2ncnc3c2ncn3/C=C/c2cccc3[nH]ccc23)cc1 | 1.54 | 0.954 |  |  | 
6 | CCCP(=O)(CCC)c1ccc(Nc2ncnc3c2ncn3/C=C/c2c(C)cccc2C)cc1 | 0.286 | 0.368 |  |  | Cmax [6]: 5140 ng/mL; half-life [7]: 1.2 h; bioavailability [8]: 0%; Vd [9]: 2.7 L/kg
7 | Cc1cccc(C)c1/C=C/n1cnc2c(Nc3ccc(P(C)(C)=O)cc3)nc(N(C)C)nc21 | 0.269 | 0.217 |  |  | 
8 | Cc1cccc(C)c1/C=C/n1cnc2c(Nc3ccc(P(C)(C)=O)cc3)nc(-n3ccnc3)nc21 |  | 0.0537 | < 0.00046 | 0.00163 | 
9 | Cc1cccc(C)c1/C=C/n1cnc2c(Nc3ccc(P(C)(C)=O)cc3)nc(C(C)C)nc21 | 0.0271 | 0.0227 |  |  | half-life [4]: 5.1 h; Cmax [5]: 478 ng/mL; Cmax [6]: 1220 ng/mL; half-life [7]: 7.5 h; bioavailability [8]: 25%; Vd [9]: 5.4 L/kg
10 | Cc1cccc(C)c1/C=C/n1cnc2c(Nc3ccc(P(C)(C)=O)cc3)nc(C3CCCC3)nc21 |  | 0.224 |  |  | 
11 | COCCOc1nc(Nc2ccc(P(C)(C)=O)cc2)c2ncn(/C=C/c3c(C)cccc3C)c2n1 | 0.0517 | 0.0267 | < 0.00046 | 0.00157 | 
12 | Cc1cccc(C)c1/C=C/n1cnc2c(Nc3ccc(P(C)(C)=O)cc3)nc(C3CCN(C)CC3)nc21 | 0.285 | 0.028 | < 0.00046 | < 0.00046 | 
13 | CCCP(=O)(CCC)c1ccc(Nc2nc(C(C)C)nc3c2ncn3/C=C/c2ccccc2)cc1 |  | > 1 |  |  | 
14 | CCCP(=O)(CCC)c1ccc(Nc2nc(C(C)C)nc3c2ncn3/C=C\c2ccccc2)cc1 |  | > 1 |  |  | 
15 | Cc1cccc(C)c1/C=C/n1cnc2c(Nc3ccc(P(C)(C)=O)cc3)ncnc21 | 0.168 | 0.109 | 0.00831 | 0.00358 | IC50 (Ephrin type-B receptor 4): 0.03 µM; IC50 [10]: 0.414 µM; IC50 [11]: 0.221 µM; half-life [4]: 5 h; IC50 [12]: 0.021 µM; Cmax [5]: 1280 ng/mL; Cmax [6]: 4320 ng/mL; IC50 [13]: 0.003 µM; IC50 (Ephrin type-B receptor 1): 0.006 µM; IC50 [14]: 0.591 µM; half-life [7]: 3.93 h; IC50 (Insulin receptor): > 1 µM; IC50 [15]: > 1 µM; bioavailability [8]: 20%; IC50 [16]: > 1 µM; IC50 [17]: > 1 µM; IC50 [18]: > 1 µM; Vd [9]: 0.98 L/kg; IC50 [19]: 0.151 µM
16 | COc1nc(Nc2ccc(P(C)(C)=O)cc2)c2ncn(/C=C/c3c(C)cccc3C)c2n1 | 0.0327 | 0.0524 | < 0.00046 | 0.0018 | 
17 | Cc1cccc(C)c1/C=C/n1cnc2c(Nc3ccc(P(C)(C)=O)cc3)nc(N3CCN(C)CC3)nc21 | 0.0737 | 0.0235 | < 0.00023 | 0.0068 | 
18 | CP(C)(=O)c1ccc(Nc2ncnc3c2ncn3/C=C/c2ccccc2Cl)cc1 | 2.01 | 1.39 |  |  | 
19 | Cc1ccc2[nH]ncc2c1/C=C/n1cnc2c(Nc3ccc(P(C)(C)=O)cc3)ncnc21 | 0.0373 | 0.0105 | < 0.00046 | < 0.00046 | Cmax [5]: 22 ng/mL; Cmax [6]: 7080 ng/mL; half-life [7]: 1.2 h; bioavailability [8]: 0%; Vd [9]: 1.9 L/kg
20 | Cc1cccc(C)c1/C=C/n1cnc2c(Nc3ccc(P(C)(C)=O)cc3)nc(OC(C)C)nc21 | 0.0348 | 0.0406 | < 0.00046 | 0.00732 | 
21 | Cc1cccc(C)c1/C=C/n1cnc2c(Nc3ccc(P(C)(C)=O)cc3)nc(CCC#N)nc21 | 0.0386 | 0.0158 | < 0.00046 | < 0.00046 | 
22 | Cc1cccc(C)c1/C=C/n1cnc2c(Nc3ccc(P(C)(C)=O)cc3)nc(Oc3cccnc3)nc21 | 0.0351 | 0.0085 | < 0.00046 | 0.0005 | 
23 | CCCP(=O)(CCC)c1ccc(Nc2nc(C(C)C)nc3c2ncn3/C=C\c2c(C)cccc2C)cc1 |  | 0.964 |  |  | 
24 | CCCP(=O)(CCC)c1ccc(Nc2nc(C(C)C)nc3c2ncn3/C=C/c2c(C)cccc2C)cc1 | 0.122 | 0.115 |  |  | 
